# From ChEMBL document CHEMBL1123498, “Structural studies on bioactive compounds. 4. A structure-antitumor activity study on analogues of N-methylformamide” (J Med Chem, 1986)
# Columns and labels:
# Mus musculus [1] = assay: Antitumor activity was evaluated against the TLX5 lymphoma in mice measured for control as death day at a optimal doses of 800 mg/Kg/day; type: functional
# Mus musculus [2] = assay: Antitumor activity was evaluated against the TLX5 lymphoma measured as mean death day for the treated at a optimal dose of 800 mg/Kg/day; type: functional
# Mus musculus [3] = assay: Antitumor activity was evaluated against the M5076 reticulum cell sarcoma in mice measured as Control tumor volume for the treated at the optimal dose 200 mg/Kg/day; type: functional
# Mus musculus [4] = assay: Antitumor activity was evaluated against the M5076 reticulum cell sarcoma in mice at dose of 400-100 mg/kg per day; type: ADME, organism-based
# Mus musculus [5] = assay: Antitumor activity was evaluated against the TLX5 lymphoma in mice measured as treated to control at optimal dose. 800 mg/Kg/day; type: functional
# Mus musculus [6] = assay: Antitumor activity was evaluated for the compound against the M5076 reticulum cell sarcoma in mice and the % T/C(treated/control) value was calculated at optimal dose of 200 mg/kg; type: functional
# Mus musculus [7] = assay: Antitumor activity was evaluated against the M5076 reticulum cell sarcoma in mice measured as mean tumor volume for the treated at the optimal dose 200 mg/Kg/day; type: functional
# Mus musculus [8] = assay: Antitumor activity was evaluated against the TLX5 lymphoma measured as mean death day for the treated at a optimal dose 400 mg/Kg/day; type: functional
# Mus musculus [9] = assay: Antitumor activity was evaluated against the TLX5 lymphoma in mice measured for control as death day at a optimal dose 400 mg/Kg/day; type: functional
# Mus musculus [10] = assay: Antitumor activity was evaluated against the M5076 reticulum cell sarcoma in mice measured as Control tumor volume for the treated at the optimal dose 50 mg/Kg/day; type: functional
# Mus musculus [11] = assay: Antitumor activity was evaluated for the compound against the M5076 reticulum cell sarcoma in mice and the % T/C(treated/control) value was calculated at optimal dose of 50 mg/kg; type: functional
# Mus musculus [12] = assay: Antitumor activity was evaluated against the M5076 reticulum cell sarcoma in mice at dose of 150-6.25 mg/kg per day; type: ADME, organism-based
# Mus musculus [13] = assay: Antitumor activity was evaluated against the M5076 reticulum cell sarcoma in mice measured as mean tumor volume for the treated at the optimal dose 50 mg/Kg/day; type: functional
# Mus musculus [14] = assay: Antitumor activity was evaluated against the TLX5 lymphoma in mice measured as treated to control at a optimal dose of 400 mg/Kg/day; type: functional
# Mus musculus [15] = assay: Antitumor activity was evaluated against the TLX5 lymphoma in mice measured as treated to control at a optimal dose of 100 mg/Kg/day; type: functional
# Mus musculus [16] = assay: Antitumor activity was evaluated against the TLX5 lymphoma measured as mean death day for the treated at a optimal dose of 400 mg/Kg/day; type: functional
# Mus musculus [17] = assay: Antitumor activity was evaluated against the TLX5 lymphoma in mice measured for control as death day at a optimal dose of 800 mg/Kg/day; type: functional
# Mus musculus [18] = assay: Antitumor activity was evaluated against the TLX5 lymphoma in mice measured as treated to control at a optimal dose of 800 mg/Kg/day; type: functional
# Mus musculus [19] = assay: Antitumor activity was evaluated against the TLX5 lymphoma in mice measured for control as death day at a optimal dose of 100 mg/Kg/day; type: functional
# Mus musculus [20] = assay: Antitumor activity was evaluated against the TLX5 lymphoma in mice measured for control as death day at the below optimal dose 400 mg/Kg/day; type: functional
# Mus musculus [21] = assay: Antitumor activity was evaluated against the TLX5 lymphoma in mice measured as treated to control at a optimal dose of 200 mg/Kg/day; type: functional
# Mus musculus [22] = assay: Antitumor activity was evaluated against the M5076 reticulum cell sarcoma in mice measured as mean tumor volume for the treated at the optimal dose 100 mg/Kg/day; type: functional
# Mus musculus [23] = assay: Antitumor activity was evaluated against the TLX5 lymphoma measured as mean death day for the treated at a optimal dose of 200 mg/Kg/day; type: functional
# Mus musculus [24] = assay: Antitumor activity was evaluated against the M5076 reticulum cell sarcoma in mice measured as mean tumor volume for the treated at the optimal dose 25 mg/Kg/day; type: functional
# Mus musculus [25] = assay: Antitumor activity was evaluated against the TLX5 lymphoma measured as mean death day for the treated at a optimal dose of 100 mg/Kg/day; type: functional
# Mus musculus [26] = assay: Antitumor activity was evaluated against the M5076 reticulum cell sarcoma in mice measured as Control tumor volume for the treated at the optimal dose 100 mg/kg/day; type: functional
# Mus musculus [27] = assay: Antitumor activity was evaluated for the compound against the M5076 reticulum cell sarcoma in mice and the % T/C(treated/control) value was calculated at optimal dose of 100 mg/kg; type: functional
# Mus musculus [28] = assay: Antitumor activity was evaluated against the M5076 reticulum cell sarcoma in mice measured as Control tumor volume for the treated at the optimal dose 50 mg/kg/day; type: functional
# Mus musculus [29] = assay: Antitumor activity was evaluated against the M5076 reticulum cell sarcoma in mice measured as Control tumor volume for the treated at the optimal dose 25 mg/Kg/day; type: functional
# Mus musculus [30] = assay: Antitumor activity was evaluated for the compound against the M5076 reticulum cell sarcoma in mice and the % T/C(treated/control) value was calculated at optimal dose of 25 mg/kg; type: functional
# Mus musculus [31] = assay: Antitumor activity was evaluated against the M5076 reticulum cell sarcoma in mice at dose of 400-6.25 mg/kg per day; type: ADME, organism-based
# Mus musculus [32] = assay: Antitumor activity was evaluated against the TLX5 lymphoma in mice measured for control as death day at a optimal dose of 200 mg/Kg/day; type: functional
# Mus musculus [33] = assay: Antitumor activity was evaluated against the TLX5 lymphoma in mice measured as treated to control at optimal dose. 100 mg/Kg/day; type: functional
# Mus musculus [34] = assay: Antitumor activity was evaluated against the M5076 reticulum cell sarcoma in mice at dose of 200-25 mg/kg per day; type: ADME, organism-based
# Mus musculus [35] = assay: Antitumor activity was evaluated against the M5076 reticulum cell sarcoma in mice at dose of 2500-600 mg/kg per day; type: ADME, organism-based
# Mus musculus [36] = assay: Antitumor activity was evaluated against the M5076 reticulum cell sarcoma in mice measured as Control tumor volume for the treated at the optimal dose 1000 mg/Kg/day; type: functional
# Mus musculus [37] = assay: Antitumor activity was evaluated against the M5076 reticulum cell sarcoma in mice measured as mean tumor volume for the treated at the optimal dose 1000 mg/Kg/day; type: functional
# Mus musculus [38] = assay: Antitumor activity was evaluated for the compound against the M5076 reticulum cell sarcoma in mice and the % T/C(treated/control) value was calculated at optimal dose of 1000 mg/kg; type: functional
# Mus musculus [39] = assay: Antitumor activity was evaluated against the TLX5 lymphoma measured as mean death day for the treated at a optimal dose 800 mg/Kg/day; type: functional
# Mus musculus [40] = assay: Antitumor activity was evaluated against the TLX5 lymphoma in mice measured as treated to control at optimal dose. 400 mg/Kg/day; type: functional
# Mus musculus [41] = assay: Antitumor activity was evaluated against the M5076 reticulum cell sarcoma in mice measured as mean tumor volume for the treated at the optimal dose 400 mg/kg day; type: functional
# Mus musculus [42] = assay: Antitumor activity was evaluated against the M5076 reticulum cell sarcoma in mice measured as Control tumor volume for the treated at the optimal dose 400 mg/Kg day; type: functional
# Mus musculus [43] = assay: Antitumor activity was evaluated against the M5076 reticulum cell sarcoma in mice at dose of 800-100 mg/kg per day; type: ADME, organism-based
# Mus musculus [44] = assay: Antitumor activity was evaluated against the M5076 reticulum cell sarcoma in mice at dose of 1500-600 mg/kg per day; type: functional
compound,measurement,setting,value
NC=O [FORMAMIDE],Control death day,Mus musculus [1],9.1
same,Mean day of death,Mus musculus [2],11.2
same,Control tumor volume,Mus musculus [3],2.1
same,LD10,Mus musculus [4],200 mg/kg/day
same,LD50,Mus musculus [4],270 mg/kg/day
same,T/C,Mus musculus [5],123%
same,T/C,Mus musculus [6],38%
same,Mean tumor volume,Mus musculus [7],0.8
CCNC=O,Mean day of death,Mus musculus [8],12.6
same,T/C,Mus musculus [5],137%
same,Control death day,Mus musculus [9],9.2
CNC(=O)ON(C(C)=O)C(=O)NC [CARACEMIDE],Control tumor volume,Mus musculus [10],2.4
same,T/C,Mus musculus [11],38%
same,LD10,Mus musculus [12],53 mg/kg/day
same,LD50,Mus musculus [12],63 mg/kg/day
same,Mean tumor volume,Mus musculus [13],0.9
CNC=O,T/C,Mus musculus [14],178%
same,T/C,Mus musculus [11],33%
same,T/C,Mus musculus [15],120%
same,Mean day of death,Mus musculus [16],16.4
same,Control death day,Mus musculus [17],9.2
same,T/C,Mus musculus [18],191%
same,Control death day,Mus musculus [19],9.2
same,Control death day,Mus musculus [20],9.2
same,T/C,Mus musculus [21],135%
same,Mean day of death,Mus musculus [2],17.6
same,Control tumor volume,Mus musculus [3],2.7
same,T/C,Mus musculus [6],0%
same,Mean tumor volume,Mus musculus [22],0.3
same,Mean day of death,Mus musculus [23],12.4
same,Mean tumor volume,Mus musculus [24],2.1
same,Mean tumor volume,Mus musculus [13],0.9
same,Mean day of death,Mus musculus [25],11
same,Control tumor volume,Mus musculus [26],2.7
same,T/C,Mus musculus [27],11%
same,Control tumor volume,Mus musculus [28],2.7
same,Control tumor volume,Mus musculus [29],2.7
same,T/C,Mus musculus [30],70%
same,LD10,Mus musculus [31],220 mg/kg/day
same,LD50,Mus musculus [31],300 mg/kg/day
same,Control death day,Mus musculus [32],9.2
CN(C)/C=C\[N+](=O)[O-],Control tumor volume,Mus musculus [10],1.5
same,T/C,Mus musculus [33],139%
same,T/C,Mus musculus [11],35%
same,Control death day,Mus musculus [19],11.1
same,LD10,Mus musculus [34],55 mg/kg/day
same,LD50,Mus musculus [34],75 mg/kg/day
same,Mean tumor volume,Mus musculus [13],0.5
same,Mean day of death,Mus musculus [25],15.4
O=CNCO,LD10,Mus musculus [35],1580 mg/kg/day
same,LD50,Mus musculus [35],1930 mg/kg/day
same,Control tumor volume,Mus musculus [36],2.1
same,Mean tumor volume,Mus musculus [37],0.8
same,T/C,Mus musculus [38],38%
[2H]C([2H])([2H])NC=O,Control death day,Mus musculus [1],13.2
same,Mean day of death,Mus musculus [39],18.8
same,T/C,Mus musculus [40],142%
CNC(=O)c1ccccc1,Mean tumor volume,Mus musculus [41],0.8
same,Control tumor volume,Mus musculus [42],1.9
same,LD10,Mus musculus [43],450 mg/kg/day
same,LD50,Mus musculus [43],650 mg/kg/day
CN(C)C=O [DIMETHYLFORMAMIDE],Control tumor volume,Mus musculus [36],2.5
same,Mean tumor volume,Mus musculus [37],1
same,LD10,Mus musculus [44],1130 mg/kg/day
same,LD50,Mus musculus [44],1280 mg/kg/day
same,T/C,Mus musculus [38],40%
